Results published in PubChem BioAssay AID651592 (Sanford-Burnham Center for Chemical Genomics, 2012).

Experiments:
[1] = inhibitors of NFkB activation in CF airway cells, SAR follow-up, KKLEB cells, panel, IL8 HTRF, NFkB-GFP (AID 651592); conditions: PAF/TNFa-induced NFkB-GFP / IL8 HTRF, CF-PAF assay;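 note: immortalized cystic fibrosis airway epithelial KKLEB cells with an NF-kB GFP reporter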
[2] = target: Interleukin-8 (Homo sapiens) (UniProt P10145); test: as above; conditions: PAF/TNFa-induced NFkB-GFP / IL8 HTRF
[3] = system: IL8; test: as above; conditions: PAF/TNFa-induced NFkB-GFP / IL8 HTRF, mean of runs, mean IC50 across panel replicates
[4] = mean of runs, mean IC50 across panel replicates

Interleukin-8 (Homo sapiens), sequence (P10145 whole entry, looked up): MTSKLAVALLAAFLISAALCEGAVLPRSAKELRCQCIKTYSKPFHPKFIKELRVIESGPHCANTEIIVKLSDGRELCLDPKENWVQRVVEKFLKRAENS

Row | Structure (SMILES) | IC50 [1, 4] [µM] | IC50 ([1]; run 1) [µM] | IC50 ([1]; run 2) [µM] | IC50 ([1]; run 3) [µM] | IC50 ([1]; run 4) [µM] | IC50 ([1]; run 5) [µM] | IC50 ([1]; run 6) [µM] | IC50 ([2]; IL8, PAF-induced, run 1) [µM] | IC50 ([2]; IL8, PAF-induced, run 2) [µM] | IC50 ([2]; IL8, PAF-induced, run 3) [µM] | IC50 ([2]; IL8, PAF-induced, run 4) [µM] | IC50 ([2]; IL8, PAF-induced, run 5) [µM] | IC50 ([2]; IL8, PAF-induced, run 6) [µM] | IC50 ([2]; IL8, TNFa-induced, run 1) [µM] | IC50 ([2]; IL8, TNFa-induced, run 2) [µM] | IC50 ([2]; IL8, TNFa-induced, run 3) [µM] | IC50 ([2]; IL8, TNFa-induced, run 4) [µM] | IC50 ([2]; IL8, TNFa-induced, run 5) [µM] | IC50 ([2]; IL8, TNFa-induced, run 6) [µM] | IC50 ([3]; PAF-induced) [µM] | also measured
1 | O=C(Nc1ccc(N2CCN(C(=O)c3ccccc3F)CC2)cc1)c1cccc(Br)c1 | 42.6 | 18.1 | 18.3 | 21.5 | > 66 | > 66 | > 66 | > 66 | > 66 | > 66 | > 66 | > 66 | > 66 | > 66 | > 66 | > 66 | > 66 | > 66 | 6.25 | > 66 | IC50 ([3]; TNFa-induced): 56 µM
2 | O=C(Nc1ccc(N2CCN(C(=O)c3ccccc3)CC2)cc1)c1ccccn1 | > 66 | > 66 | > 66 | > 66 | > 66 | > 66 | > 66 | > 66 | > 66 | > 66 | > 66 | > 66 | > 66 | > 66 | > 66 | > 66 | > 66 | > 66 | > 66 | > 66 | IC50 ([3]; TNFa-induced): > 66 µM
3 | O=C(Nc1ccc(N2CCN(C(=O)c3ccccc3)CC2)cc1)c1ccncc1 | 39.7 | 32.7 | 38.2 | 48.1 | > 66 | > 66 | > 66 | > 66 | > 66 | 4.58 | > 66 | > 66 | > 66 | > 66 | > 66 | > 66 | > 66 | > 66 | > 66 | 55.8 | IC50 ([3]; TNFa-induced): > 66 µM
4 | O=C(Nc1ccc(N2CCN(C(=O)c3ccccc3Cl)CC2)cc1)c1cc(Br)cc(Br)c1 | > 66 | > 66 | > 66 | > 66 | > 66 | > 66 | > 66 | > 66 | > 66 | > 66 | > 66 | > 66 | > 66 | > 66 | > 66 | > 66 | > 66 | > 66 | > 66 | > 66 | IC50 ([3]; TNFa-induced): > 66 µM
5 | O=C(Nc1ccc(N2CCN(C(=O)c3ccc(F)cc3)CC2)cc1)c1ccncc1 | > 66 | > 66 | > 66 | > 66 | > 66 | > 66 | > 66 | > 66 | > 66 | > 66 | > 66 | > 66 | > 66 | > 66 | > 66 | > 66 | > 66 | > 66 | > 66 | > 66 | IC50 ([3]; TNFa-induced): > 66 µM
6 | O=C(Nc1ccc(N2CCN(C(=O)c3ccccc3F)CC2)cc1)c1ccccn1 | 45.7 | 32.5 | 40.3 | 64.3 | > 66 | > 66 | > 66 | > 66 | > 66 | > 66 | > 66 | > 66 | > 66 | > 66 | > 66 | > 66 | > 66 | > 66 | > 66 | > 66 | IC50 ([3]; TNFa-induced): > 66 µM
7 | O=C(Nc1ccc(N2CCN(C(=O)c3ccccc3F)CC2)cc1)c1cc(Br)cc(Br)c1 | > 66 | > 66 | > 66 | > 66 | > 66 | > 66 | > 66 | > 66 | > 66 | > 66 | > 66 | > 66 | > 66 | > 66 | > 66 | > 66 | > 66 | > 66 | > 66 | > 66 | IC50 ([3]; TNFa-induced): > 66 µM

The next compounds have a lower IC50 [1, 4] than those just listed; values first:

Row | IC50 [1, 4] [µM] | IC50 ([1]; run 1) [µM] | IC50 ([1]; run 2) [µM] | IC50 ([1]; run 3) [µM] | IC50 ([1]; run 4) [µM] | IC50 ([1]; run 5) [µM] | IC50 ([1]; run 6) [µM] | IC50 ([2]; IL8, PAF-induced, run 1) [µM] | IC50 ([2]; IL8, PAF-induced, run 2) [µM] | IC50 ([2]; IL8, PAF-induced, run 3) [µM] | IC50 ([2]; IL8, PAF-induced, run 4) [µM] | IC50 ([2]; IL8, PAF-induced, run 5) [µM] | IC50 ([2]; IL8, PAF-induced, run 6) [µM] | IC50 ([2]; IL8, TNFa-induced, run 1) [µM] | IC50 ([2]; IL8, TNFa-induced, run 2) [µM] | IC50 ([2]; IL8, TNFa-induced, run 3) [µM] | IC50 ([2]; IL8, TNFa-induced, run 4) [µM] | IC50 ([2]; IL8, TNFa-induced, run 5) [µM] | IC50 ([2]; IL8, TNFa-induced, run 6) [µM] | IC50 ([3]; PAF-induced) [µM] | Structure (SMILES) | also measured
8 | 31.8 | 15.6 | 16.3 | 17.9 | > 66 | > 66 | 8.71 | > 66 | > 66 | 55.8 | > 66 | > 66 | > 66 | > 66 | > 66 | > 66 | > 66 | > 66 | > 66 | 55.8 | O=C(Nc1ccc(N2CCN(C(=O)c3ccccc3F)CC2)cc1)c1ccncc1 | IC50 ([3]; TNFa-induced): > 66 µM
9 | 29 | 6.4 | 8.28 | 8.83 | > 66 | > 66 | 18.3 | > 66 | > 66 | > 66 | > 66 | > 66 | 37.8 | > 66 | > 66 | > 66 | > 66 | > 66 | > 66 | 61.3 | O=C(Nc1ccc(N2CCN(C(=O)c3ccccc3F)CC2)cc1)c1cccnc1 | IC50 ([3]; TNFa-induced): > 66 µM
10 | 20.5 | 14.9 | 16.6 | 19.2 | 20.7 | 23.1 | 28.5 | > 66 | 4.44 | 17.8 | > 66 | > 66 | > 66 | > 66 | > 66 | 14.9 | > 66 | > 66 | 8.25 | 47.7 | O=C(Nc1ccc(N2CCN(C(=O)c3ccccc3)CC2)cc1)c1cccc(Br)c1 | IC50 ([3]; TNFa-induced): 47.9 µM
11 | 12.6 | 13 | 15.9 | 16.2 | 9.13 | 10.5 | 11.2 | 10.3 | 13.9 | 14.1 | 7.93 | 8.32 | 8.5 | > 66 | > 66 | > 66 | > 66 | > 66 | > 66 | 10.5 | CCOc1ccc(NCc2cc3c(C)nn(-c4ccccc4)c3[nH]c2=O)cc1 | IC50 ([3]; TNFa-induced): > 66 µM
12 | 3.75 | 2.7 | 3.16 | 3.43 | 2.93 | 4.5 | 5.77 | 4.34 | 7.55 | 9.86 | 0.898 | 7.37 | 24.3 | > 66 | > 66 | 35.6 | > 66 | > 66 | > 66 | 9.06 | O=C(Nc1ccc(N2CCN(C(=O)c3ccccc3)CC2)cc1)c1cncc(Br)c1 | IC50 ([3]; TNFa-induced): 60.9 µM
13 | 3.01 | 2.5 | 3.02 | 3.34 | 2.31 | 3.07 | 3.82 | 8.79 | 9.88 | 24.9 | 2.03 | 3.53 | 7.95 | > 66 | > 66 | > 66 | > 66 | 10.3 | 25.4 | 9.52 | O=C(Nc1ccc(N2CCN(C(=O)c3ccc(F)cc3)CC2)cc1)c1cncc(Br)c1 | IC50 ([3]; TNFa-induced): 50 µM
14 | 2.74 | 1.98 | 2.48 | 2.61 | 2.72 | 2.99 | 3.67 | 7.62 | 8.41 | 11.1 | 3.16 | 5.73 | 17 | 0.275 | 2.14 | 5.45 | > 66 | 8.3 | 14.3 | 8.85 | O=C(Nc1ccc(N2CCN(C(=O)c3ccccc3Cl)CC2)cc1)c1cncc(Br)c1 | IC50 ([3]; TNFa-induced): 16.1 µM
